# In patent US20070128217A1 (priority 2003, published 2007):
# Legend:
# [1] = tested on: antibodies in sera from SARS patients (sera 1a, 1b, 2, 6, 37, 62, London, SARS-yellow, SARS-green); type: binding, human; parameters: Binding of serum 6 to linear peptides of protein X1 of SARS-CoV Urbani / Binding of serum 37 to linear peptides of protein X1 of SARS-CoV Urbani / Binding of serum 6 to looped/cyclic peptide (PEPSCAN-ELISA) / Binding of serum 37 to looped/cyclic peptide (PEPSCAN-ELISA) / Binding of serum 37 to looped/cyclic peptides of protein X1 of SARS-CoV Urbani / Binding of serum 6 to linear peptides of protein X2 / Binding of serum 37 to linear peptides of protein X2 / Binding of serum 37 to looped/cyclic peptides of protein X2 of SARS-CoV Urbani / Binding of serum 6 to linear peptides of protein M of SARS-CoV Urbani / Binding of serum 37 to linear peptides of protein M of SARS-CoV Urbani / Binding of serum 6 to looped/cyclic peptides of protein M of SARS-CoV Urbani / Binding of serum 37 to looped/cyclic peptides of protein M of SARS-CoV Urbani / Binding of serum 6 to linear peptides of protein X3 of SARS-CoV Urbani / Binding of serum 37 to linear peptides of protein X3 of SARS-CoV Urbani / Binding of serum 37 to looped/cyclic peptides of protein X3 of SARS-CoV Urbani / Binding of serum 6 to linear peptides of protein X4 of SARS-CoV Urbani / Binding of serum 37 to linear peptides of protein X4 of SARS-CoV Urbani / Binding of serum 37 to looped/cyclic peptides of protein X4 of SARS-CoV Urbani / Binding of serum 6 to linear peptides of protein X5 of SARS-CoV Urbani / Binding of serum 37 to linear peptides of protein X5 of SARS-CoV Urbani / Binding of serum 37 to looped/cyclic peptides of protein X5 of SARS-CoV Urbani / Binding of serum 6 to linear peptides of protein N of SARS-CoV Urbani / Binding of serum 37 to linear peptides of protein N of SARS-CoV Urbani / Binding of serum 6 to linear peptide (PEPSCAN-ELISA) / Binding of serum 1a to looped/cyclic peptides of protein N of SARS-CoV Urbani / Binding of serum 1b to looped/cyclic peptides of protein N of SARS-CoV Urbani / Binding of serum 2 to looped/cyclic peptides of protein N of SARS-CoV Urbani / Binding of serum 6 to looped/cyclic peptides of protein N of SARS-CoV Urbani / Binding of serum 37 to looped/cyclic peptides of protein N of SARS-CoV Urbani / Binding of serum 62 to looped/cyclic peptides of protein N of SARS-CoV Urbani / Binding of serum London to looped/cyclic peptides of protein N of SARS-CoV Urbani / Binding of serum SARS-green to looped/cyclic peptides of protein N of SARS-CoV Urbani: unit not given here
# [2] = tested on: control sera (pooled serum of ten healthy LUMC hospital workers; commercial negative donor pooled serum from the Dutch bloodbank); type: binding, human; parameters: Binding of Control serum LUMC to linear peptides / Binding of Control serum Blood-bank to linear peptides / Binding of Control serum LUMC to looped peptides / Binding of Control Serum Blood-Bank to Looped peptides / Binding of Control serum LUMC to linear peptides of the protein M of SARS-CoV Urbani / Binding of Control serum Blood-bank to linear peptides of the protein M of SARS-CoV Urbani / Binding of Control serum LUMC to looped peptides of the protein M of SARS-CoV Urbani / Binding of Control Serum Blood-Bank to Looped peptides of the protein M of SARS-CoV Urbani: unit not given here
# [3] = tested on: rabbit serum obtained by immunizing a rabbit with the SARS-CoV strain Frankfurt 1; type: binding; parameters: Binding of a rabbit serum to linear peptides / Binding of a rabbit serum to looped peptides / Rabbit serum linear peptides / Rabbit serum looped peptides / Binding of a rabbit serum to linear peptides of protein N of SARS-CoV Urbani (Rabbit serum linear peptides) / Binding of a rabbit serum to looped/cyclic peptides of protein N of SARS-CoV Urbani (Rabbit serum looped peptides): unit not given here
sequence,measurement,setting,value
ELYSPLFLIVAALVF,Binding of serum 1a to linear peptides of protein X4 of SARS-CoV Urbani,[1],0.7
same,Binding of serum 1a to looped/cyclic peptides of protein X4 of SARS-CoV Urbani,[1],0.6
same,Binding of serum 1b to linear peptides of protein X4 of SARS-CoV Urbani,[1],0.4
same,Binding of serum 1b to looped/cyclic peptides of protein X4 of SARS-CoV Urbani,[1],0.4
same,Binding of serum 2 to linear peptides of protein X4 of SARS-CoV Urbani,[1],0.4
same,Binding of serum 2 to looped/cyclic peptides of protein X4 of SARS-CoV Urbani,[1],0.6
same,Binding of serum 6 to linear peptides of protein X4 of SARS-CoV Urbani,[1],0.4
same,Binding of serum 6 to looped/cyclic peptides of protein X4 of SARS-CoV Urbani,[1],0.4
same,Binding of serum 37 to linear peptides of protein X4 of SARS-CoV Urbani,[1],0.6
same,Binding of serum 37 to looped/cyclic peptides of protein X4 of SARS-CoV Urbani,[1],0.6
same,Binding of serum 62 to linear peptides of protein X4 of SARS-CoV Urbani,[1],0.6
same,Binding of serum 62 to looped/cyclic peptides of protein X4 of SARS-CoV Urbani,[1],0.6
same,Binding of serum London to linear peptides of protein X4 of SARS-CoV Urbani,[1],0.5
same,Binding of serum London to looped/cyclic peptides of protein X4 of SARS-CoV Urbani,[1],0.2
same,Binding of serum SARS-green to linear peptides of protein X4 of SARS-CoV Urbani,[1],0.5
same,Binding of serum SARS-green to looped/cyclic peptides of protein X4 of SARS-CoV Urbani,[1],0.5
same,Binding of serum SARS-yellow to linear peptides of protein X4 of SARS-CoV Urbani,[1],0.2
same,Binding of serum SARS-yellow to looped/cyclic peptides of protein X4 of SARS-CoV Urbani,[1],0.6
same,Binding of Control Serum Blood-Bank to Looped peptides,[2],0.7
same,Binding of Control serum Blood-bank to linear peptides,[2],0.5
same,Binding of Control serum LUMC to linear peptides,[2],0.3
same,Binding of Control serum LUMC to looped peptides,[2],0.7
same,Rabbit serum linear peptides,[3],0.4
same,Rabbit serum looped peptides,[3],0.5
ALNKRWQLALYKGFQ,Binding of serum 1a to linear peptides of protein X1 of SARS-CoV Urbani,[1],0.7
same,Binding of serum 1a to looped/cyclic peptide (PEPSCAN-ELISA),[1],0.8
same,Binding of serum 1b to linear peptides of protein X1 of SARS-CoV Urbani,[1],0.6
same,Binding of serum 1b to looped/cyclic peptide (PEPSCAN-ELISA),[1],0.6
same,Binding of serum 2 to linear peptides of protein X1 of SARS-CoV Urbani,[1],0.5
same,Binding of serum 2 to looped/cyclic peptide (PEPSCAN-ELISA),[1],0.7
same,Binding of serum 6 to linear peptides of protein X1 of SARS-CoV Urbani,[1],0.5
same,Binding of serum 6 to looped/cyclic peptide (PEPSCAN-ELISA),[1],0.6
same,Binding of serum 37 to linear peptides of protein X1 of SARS-CoV Urbani,[1],0.6
same,Binding of serum 37 to looped/cyclic peptide (PEPSCAN-ELISA),[1],0.6
same,Binding of serum 62 to linear peptides of protein X1 of SARS-CoV Urbani,[1],0.5
same,Binding of serum 62 to looped/cyclic peptide (PEPSCAN-ELISA),[1],0.7
same,Binding of serum London to linear peptides of protein X1 of SARS-CoV Urbani,[1],0.2
same,Binding of serum London to looped/cyclic peptide (PEPSCAN-ELISA),[1],0.3
same,Binding of serum SARS-green to linear peptides of protein X1 of SARS-CoV Urbani,[1],0.2
same,Binding of serum SARS-green to looped/cyclic peptide (PEPSCAN-ELISA),[1],0.4
same,Binding of serum SARS-yellow to linear peptides of protein X1 of SARS-CoV Urbani,[1],0.4
same,Binding of serum SARS-yellow to looped/cyclic peptide (PEPSCAN-ELISA),[1],0.6
same,Binding of Control Serum Blood-Bank to Looped peptides,[2],0.9
same,Binding of Control serum Blood-bank to linear peptides,[2],0.6
same,Binding of Control serum LUMC to linear peptides,[2],0.6
same,Binding of Control serum LUMC to looped peptides,[2],0.8
same,Recognition of the peptide by the rabbit serum,[3],recognized
HITVSQIQLSLLKVT,Binding of serum 1a to linear peptides of protein X2,[1],0.6
same,Binding of serum 1a to looped/cyclic peptides of protein X2 of SARS-CoV Urbani,[1],0.5
same,Binding of serum 1b to linear peptides of protein X2,[1],0.5
same,Binding of serum 1b to looped/cyclic peptides of protein X2 of SARS-CoV Urbani,[1],0.5
same,Binding of serum 2 to linear peptides of protein X2,[1],0.5
same,Binding of serum 2 to looped/cyclic peptides of protein X2 of SARS-CoV Urbani,[1],0.5
same,Binding of serum 6 to linear peptides of protein X2,[1],0.5
same,Binding of serum 6 to looped/cyclic peptides of protein X2 of SARS-CoV Urbani,[1],0.4
same,Binding of serum 37 to linear peptides of protein X2,[1],0.7
same,Binding of serum 37 to looped/cyclic peptides of protein X2 of SARS-CoV Urbani,[1],0.5
same,Binding of serum 62 to linear peptides of protein X2,[1],0.5
same,Binding of serum 62 to looped/cyclic peptides of protein X2 of SARS-CoV Urbani,[1],0.6
same,Binding of serum London to linear peptides of protein X2,[1],0.4
same,Binding of serum London to looped/cyclic peptides of protein X2 of SARS-CoV Urbani,[1],0.8
same,Binding of serum SARS-green to linear peptides of protein X2,[1],0.2
same,Binding of serum SARS-green to looped/cyclic peptides of protein X2 of SARS-CoV Urbani,[1],0.4
same,Binding of serum SARS-yellow to linear peptides of protein X2,[1],0.8
same,Binding of serum SARS-yellow to looped/cyclic peptides of protein X2 of SARS-CoV Urbani,[1],0.6
same,Binding of Control Serum Blood-Bank to Looped peptides,[2],0.6
same,Binding of Control serum Blood-bank to linear peptides,[2],0.6
same,Binding of Control serum LUMC to linear peptides,[2],0.8
same,Binding of Control serum LUMC to looped peptides,[2],0.5
same,Binding of a rabbit serum to linear peptides,[3],0.7
same,Binding of a rabbit serum to looped peptides,[3],0.4
